Assay results from patent US12077503B2, “Substituted cyclic amides and their use as herbicides” (FMC CORPORATION, priority 2015, dated 2024).

Experiments:
Format in all cases: in vivo
[1] = tested on: giant foxtail (Setaria faberii); experiment: Test A preemergence; conditions: Setaria faberi, pre-emergence, 240 h, 0 to 100 scale where 0 is no effect and 100 is complete control, read-out: Foxtail, Giant plant response rating
In short: (§1)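 Preemergence directed soil spray on seeded pots, or postemergence application to plants 2–10 cm, one- to two-leaf. Solvent mixture non-phytotoxic, with surfactant. Scored ~10 d later, visually, 0–100 vs untreated.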

[2] = tested on: barnyardgrass (Echinochloa crus-galli); experiment: Test A preemergence; conditions: Echinochloa crus-galli, pre-emergence, 240 h, 0 to 100 scale where 0 is no effect and 100 is complete control, read-out: Barnyardgrass plant response rating
In short: as §1

[3] = tested on: ryegrass, Italian (Italian ryegrass, Lolium multiflorum); experiment: Test A preemergence; conditions: Lolium multiflorum, pre-emergence, 240 h, 0 to 100 scale where 0 is no effect and 100 is complete control, read-out: Ryegrass, Italian plant response rating
In short: as §1

[4] = tested on: Kochia (Kochia scoparia); experiment: Test A preemergence; conditions: Bassia scoparia, pre-emergence, 240 h, 0 to 100 scale where 0 is no effect and 100 is complete control, read-out: Kochia plant response rating
In short: as §1

[5] = tested on: ragweed (common ragweed, Ambrosia elatior); experiment: Test A preemergence; conditions: Ambrosia artemisiifolia, pre-emergence, 240 h, 0 to 100 scale where 0 is no effect and 100 is complete control, read-out: Ragweed plant response rating
In short: as §1

[6] = tested on: pigweed (Amaranthus retroflexus); experiment: Test A preemergence; conditions: Amaranthus retroflexus, pre-emergence, 240 h, 0 to 100 scale where 0 is no effect and 100 is complete control, read-out: Pigweed plant response rating
[7] = tested on: giant foxtail (Setaria faberii); experiment: Test A postemergence; conditions: Setaria faberi, post-emergence, 240 h, Postemergence, read-out: Foxtail, Giant plant response rating (0 to 100 scale)
In short: as §1

[8] = tested on: barnyardgrass (Echinochloa crus-galli); experiment: Test A postemergence; conditions: Echinochloa crus-galli, post-emergence, 240 h, Postemergence
In short: as §1

[9] = tested on: ryegrass, Italian (Italian ryegrass, Lolium multiflorum); experiment: Test A postemergence; conditions: Lolium multiflorum, post-emergence, 240 h, Postemergence, read-out: Ryegrass, Italian plant response rating (0 to 100 scale)
In short: as §1

[10] = tested on: Kochia (Kochia scoparia); experiment: Test A postemergence; conditions: Bassia scoparia, post-emergence, 240 h, Postemergence, read-out: Kochia plant response rating (0 to 100 scale)
In short: as §1

[11] = tested on: blackgrass (Alopecurus myosuroides); experiment: Test A postemergence; conditions: Alopecurus myosuroides, post-emergence, 240 h, Postemergence, read-out: Blackgrass plant response rating (0 to 100 scale)
In short: as §1

[12] = tested on: Galium (catchweed bedstraw, Galium aparine); experiment: Test A postemergence; conditions: Galium, post-emergence, 240 h, Postemergence, read-out: Galium plant response rating (0 to 100 scale)
In short: as §1

[13] = tested on: wheat (Triticum aestivum); experiment: Test A postemergence; conditions: Triticum aestivum, post-emergence, 240 h, Postemergence, read-out: Wheat plant response rating (0 to 100 scale)
In short: as §1

[14] = tested on: corn (Zea mays); experiment: Test A postemergence; conditions: Zea mays, post-emergence, 240 h, Postemergence, read-out: Corn plant response rating (0 to 100 scale)
In short: as §1

[15] = tested on: ragweed (common ragweed, Ambrosia elatior); experiment: Test A postemergence; conditions: Ambrosia artemisiifolia, post-emergence, 240 h, Postemergence, read-out: Ragweed plant response rating (0 to 100 scale)
In short: as §1

[16] = tested on: pigweed (Amaranthus retroflexus); experiment: Test A postemergence; conditions: Amaranthus retroflexus, post-emergence, 240 h, Postemergence, read-out: Pigweed plant response rating (0 to 100 scale)
In short: as §1

[17] = tested on: barnyardgrass (Echinochloa crus-galli); experiment: Test B flooded paddy test; conditions: Echinochloa crus-galli, 250 g ai/ha, Flood; 0 to 100 scale where 0 is no effect and 100 is complete control; read-out: Barnyardgrass plant response rating
In short: (§2)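 2-leaf plants; pots flooded 3 cm over soil; cpd added to paddy water; depth held; greenhouse 13–15 d; visual rating vs controls, 0 = no effect, 100 = complete control.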

[18] = tested on: ducksalad (Heteranthera limosa); experiment: Test B flooded paddy test; conditions: Heteranthera limosa, 250 g ai/ha, Flood; 0 to 100 scale where 0 is no effect and 100 is complete control; read-out: Ducksalad plant response rating
In short: as §2

[19] = tested on: rice (Oryra sativa); experiment: Test B flooded paddy test; conditions: Oryza sativa, 250 g ai/ha, Flood; 0 to 100 scale where 0 is no effect and 100 is complete control; read-out: Rice plant response rating
In short: as §2

[20] = tested on: sedge, umbrella (small-flower umbrella sedge, Cyperus difformis); experiment: Test B flooded paddy test; conditions: Cyperus difformis, 250 g ai/ha, Flood; 0 to 100 scale where 0 is no effect and 100 is complete control; read-out: Sedge, Umbrella plant response rating
In short: as §2

[21] = 125 g ai/ha, preemergence, visual injury rating, approximately 10 d
[22] = 125 g ai/ha, visual rating about 10 d after treatment
[23] = 31 g ai/ha, 0 is no effect, 100 is complete control

O=C1NC[C@H](c2csc3c2CCOC3)[C@H]1C(=O)Nc1cccc(F)c1F [Compound 1279]
100%: pest or weed control at 250 g/ha [18]
0%: pest or weed control at 31 g/ha ([1]; 31 g ai/ha, Preemergence) | pest or weed control at 31 g/ha ([2]; 31 g ai/ha, Preemergence) | pest or weed control at 31 g/ha ([3]; 31 g ai/ha, Preemergence) | pest or weed control at 125 g/ha [3, 21] | pest or weed control at 31 g/ha ([4]; 31 g ai/ha, Preemergence) | pest or weed control at 125 g/ha [4, 21] | pest or weed control at 31 g/ha ([5]; 31 g ai/ha, Preemergence) | pest or weed control at 125 g/ha [5, 21] | pest or weed control at 31 g/ha ([6]; 31 g ai/ha, Preemergence) | pest or weed control at 125 g/ha [6, 21] | pest or weed control at 31 g/ha [7, 23] | pest or weed control at 31 g/ha ([8]; 31 g ai/ha, 0 is no effect, 100 is complete control, read-out: Barnyardgrass plant response rating (0 to 100 scale)) | pest or weed control at 125 g/ha [9, 22] | pest or weed control at 31 g/ha [9, 23] | pest or weed control at 125 g/ha [10, 22] | pest or weed control at 31 g/ha [10, 23] | pest or weed control at 31 g/ha [11, 23] | pest or weed control at 31 g/ha [12, 23] | plant injury at 125 g/ha [13, 22] | plant injury at 31 g/ha [13, 23] | plant injury at 125 g/ha [14, 22] | plant injury at 31 g/ha [14, 23] | pest or weed control at 125 g/ha [15, 22] | pest or weed control at 31 g/ha [15, 23] | pest or weed control at 125 g/ha [16, 22] | pest or weed control at 31 g/ha [16, 23] | pest or weed control at 250 g/ha [20]
20%: pest or weed control at 125 g/ha [1, 21] | pest or weed control at 125 g/ha [7, 22] | pest or weed control at 125 g/ha [11, 22]
40%: pest or weed control at 250 g/ha [17]
50%: pest or weed control at 125 g/ha ([8]; 125 g ai/ha, visual rating about 10 d after treatment, read-out: Barnyardgrass plant response rating (0 to 100 scale, 0 no effect, 100 complete control))
70%: pest or weed control at 125 g/ha [2, 21]
30%: pest or weed control at 125 g/ha [12, 22] | pest or weed control at 250 g/ha [19]
